Measured values as given in patent US8071764B2, “Compounds of reverse turn mimetics and the use thereof (2)” (Choongwae Pharma Corporation, priority 2008, dated 2011).
Where two headings read alike, the source gives them in different places.

Key:
[1] = tested on: MV-4-11 cells; experiment: Cell growth inhibition assay on AML cancer cells; format: cell-based; details: Homo sapiens, MV4-11, 72 hours
Procedure: Cell growth Inhibition assay was performed to investigate the rate of inhibition of cell proliferation by the test compounds. MV-4-11 (human, Acute Myeloid Leukemia cell line) cells were cultured in Iscove's modified Dulbecco's medium (IMDM) including 10% fetal bovine serum (FBS), 1× penicillin/streptomycin (10,000 units/ml Penicillin, […] Streptomycin in 0.85% NaCl). MV-4-11 cells were harvested with IMDM medium and 5×10^4 cells/well were transferred to each well of 96 well culture plates (Nunc, #167008). The test compounds were treated with the serial dilution and duplicated for each concentration. For the serial dilution, the test compounds were repeatedly diluted with the same volume of media onto 96-well assay block (costar, #3956). After the dilution, each compound was added to each well. The background absorbance was also measured during the test compounds treatment by adding the IMDM media in replacement of test compound to the negative control plate. The plates were incubated for 3 days (72 hours) at 37° C. in the humidified incubator containing 5% CO2. On the last day, 20 μL of CellTiter 96 Aqueous One Solution (Promega #G3581) was added to the culture in each well and the plates were incubated for a few hours at 37° C. in the humidified incubator containing 5% CO2. After the incubation, the absorbance of each cell was measured at 490 nm using an EnVision (Perkinelmer, USA). The […] values were calculated using a Prism 3.0 program.

[2] = target: T1, cDNA-expressed human hepatic CYP3A4 (Homo sapiens, UniProt P08684); experiment: P450 CYP3A4 inhibitory activity screening (fluorescent assay, BFC substrate); format: in vitro ADME
T1 construct: purchased BD Gentest 456202
Procedure: Assay was conducted in a 200 μL volume in 96-well microtiter plates using cDNA-expressed human hepatic CYP3A4 (supersome, BD Gentest™ #456202). 7-Benzyloxy-4-trifluoromethyl-coumarin (BFC) was used as a substrate for CYP3A4. Test articles and substrate BFC were dissolved in 100% acetonitrile. The final volume of acetonitrile in the incubation mixture was less than 1% (volume/volume). Potassium phosphate buffer (pH 7.4, final concentration 0.1 M), MgCl2 (final concentration 8.3 mM), EDTA (final concentration 1.67 mM), a test article stock solution, a CYP3A4 supersome and NADPH (final concentration 0.25 mM) were added to each well. The reaction was initiated by the addition of substrate (BFC, final concentration 30 µM) after a 10 min pre-incubation at 37° C. After 10 min incubation at 37° C., the reaction was terminated by the addition of […] of acetonitrile:0.5 M Tris-base=4:1 (volume/volume). Thereafter, Fluorescent signal was measured using a fluorometer. BFC metabolite, 7-hydroxy-4-trifluoromethyl-coumarin, was measured using an excitation wavelength of 409 nm and an emission wavelength of 530 nm.

[3] = tested on: Wnt signaling; experiment: TopFlash reporter gene bioassay in SW480 cells; format: cell-based; details: Homo sapiens
Procedure: Inhibition activity against Wnt signaling was measured by the TopFlash reporter. The lower IC50 value means the higher inhibition activity.
TopFlash reporter gene Bioassay for the measurement of IC50 against SW480 cells
The test compound (Compound A) used in this example was prepared in Preparation Example 2. SW480 cells were transfected with the usage of Superfect™ transfect reagent (Qiagen, 301307). Cells were trypsinized briefly 1 day before transfection and plated on 6 well plate (5×10^5 cells/well) so that they were 50-80% confluent on the day of transfection.
Four microgram (TopFlash) and one microgram (pRL-null) of DNAs were diluted in 150 μl of serum-free medium, and 30 μl of Superfect™ transfect reagent was added. The DNA-Superfect mixture was incubated at room temperature for 15 min, and then, 1 ml of 10% FBS DMEM was added to this complex for an additional 3 hours of incubation. While complexes were forming, cells were washed with PBS twice without antibiotics.
The DNA-Superfect™ transfect reagent complexes were applied to the cells before incubating at 37° C. at 5% CO2 for 3 hours. After incubation, recovery medium with 10% FBS was added to bring the final volume to 1.18 ml. After 3 hours incubation, the cells were harvested and reseeded to a 96 well plate (3×10^4 cells/well). After overnight incubation at 37° C. at 5% CO2, the cells were treated with Compound A for 24 hours. […]

[4] = MV-4-11 AML cells, read-out: MV-4-11, GI50
[5] = fluorescent assay, read-out: CYP3A4 inhibition, IC50 (μM) fluorescent assay
[6] = MV-4-11 cells, FIG. 4, read-out: GI50

T1 sequence (P08684 whole entry): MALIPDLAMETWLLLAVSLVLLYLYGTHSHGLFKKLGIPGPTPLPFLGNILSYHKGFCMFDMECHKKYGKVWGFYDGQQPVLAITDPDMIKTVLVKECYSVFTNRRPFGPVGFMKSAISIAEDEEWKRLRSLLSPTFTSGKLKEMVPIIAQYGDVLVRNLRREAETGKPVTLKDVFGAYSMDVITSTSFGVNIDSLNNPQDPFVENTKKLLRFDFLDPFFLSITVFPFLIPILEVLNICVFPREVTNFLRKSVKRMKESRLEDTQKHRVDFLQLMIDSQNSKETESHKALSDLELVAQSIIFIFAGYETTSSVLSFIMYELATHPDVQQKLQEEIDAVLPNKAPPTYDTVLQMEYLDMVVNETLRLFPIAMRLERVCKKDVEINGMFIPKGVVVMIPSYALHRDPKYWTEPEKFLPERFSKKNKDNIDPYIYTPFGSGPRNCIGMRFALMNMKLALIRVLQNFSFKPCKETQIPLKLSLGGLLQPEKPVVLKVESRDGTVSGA

| GI50 [1, 4] | IC50 [2, 5] | Structure (SMILES) | further results |
| --- | --- | --- | --- |
| – | 38 µM | C=CCN1CC(=O)N2[C@@H](Cc3ccc(O)cc3)C(=O)N(Cc3cccc4c3nnn4CC(=O)N(C)C)C[C@@H]2N1C(=O)NCc1ccccc1 [compound 9] | – |
| 1850 nM | – | C=CCN1CC(=O)N2[C@@H](Cc3ccc(O)cc3)C(=O)N(Cc3cccc4nnn(CC(=O)NCCOC)c34)C[C@@H]2N1C(=O)NCc1ccccc1 [compound 9] | – |
| 370 nM | – | C=CCN1CC(=O)N2[C@@H](Cc3ccc(O)cc3)C(=O)N(Cc3cccc4c3nnn4CC(=O)N3CCOCC3)C[C@@H]2N1C(=O)NCc1ccccc1 [compound 7] | – |
| 600 nM | – | C=CCN1CC(=O)N2[C@@H](Cc3ccc(O)cc3)C(=O)N(Cc3cccc4c3nnn4CC(=O)NCc3ccncc3)C[C@@H]2N1C(=O)NCc1ccccc1 [compound 14] | – |
| – | > 50 µM | C=CCN1CC(=O)N2[C@@H](Cc3ccc(O)cc3)C(=O)N(Cc3cccc4c3nnn4CC(=O)O)C[C@@H]2N1C(=O)NCc1ccccc1 [compound 6] | – |
| 560 nM | – | C=CCN1CC(=O)N2[C@@H](Cc3ccc(O)cc3)C(=O)N(Cc3cccc4c3nnn4CC(N)=O)C[C@@H]2N1C(=O)NCc1ccccc1 [compound 12] | – |
| – | 46.9 µM | C=CCN1CC(=O)N2[C@@H](Cc3ccc(O)cc3)C(=O)N(Cc3cccc4nnn(CC(=O)NCCOC)c34)C[C@@H]2N1C(=O)NCc1ccccc1 [compound 8] | – |
| – | 33.2 µM | C=CCN1CC(=O)N2[C@@H](Cc3ccc(O)cc3)C(=O)N(Cc3cccc4nnn(CC(N)=O)c34)C[C@@H]2N1C(=O)NCc1ccccc1 [compound 12] | – |
| 650 nM | – | C=CCN1CC(=O)N2[C@@H](Cc3ccc(O)cc3)C(=O)N(Cc3cccc4c3nnn4CC(=O)OCC)C[C@@H]2N1C(=O)NCc1ccccc1 [compound 6] | – |
| – | 7.4 µM | C=CCN1CC(=O)N2[C@@H](Cc3ccc(O)cc3)C(=O)N(Cc3cccc4c3nnn4CC(=O)OCC)C[C@@H]2N1C(=O)NCc1ccccc1 [compound 5] | – |
| – | 32.4 µM | C=CCN1CC(=O)N2[C@@H](Cc3ccc(O)cc3)C(=O)N(Cc3cccc4c3nnn4CC(=O)NC)C[C@@H]2N1C(=O)NCc1ccccc1 [compound 13] | – |
| 180 nM | – | C=CCN1CC(=O)N2[C@@H](Cc3ccc(O)cc3)C(=O)N(Cc3cccc4c3nnn4CC(=O)NC)C[C@@H]2N1C(=O)NCc1ccccc1 [compound 15] | – |

The remaining lines, values behind:

| Structure (SMILES) | GI50 [1, 4] | IC50 [2, 5] | further results |
| --- | --- | --- | --- |
| C=CCN1CC(=O)N2[C@@H](Cc3ccc(O)cc3)C(=O)N(Cc3cccc4nnn(CC(=O)N(C)C)c34)C[C@@H]2N1C(=O)NCc1ccccc1 [compound 8] | 1920 nM | – | – |
| C=CCN1CC(=O)N2[C@@H](Cc3ccc(O)cc3)C(=O)N(Cc3ccc4nn(C)nc4c3)C[C@@H]2N1C(=O)NCc1ccccc1 [compound 1] | 260 nM | 19.2 µM | IC50 ([3]; SW480, TopFlash reporter gene assay, read-out: RGA, IC50 (μM) TopF): 1 ± 0.25 µM |
| C=CCN1CC(=O)N2[C@@H](Cc3ccc(O)cc3)C(=O)N(Cc3cccc4nnn(CC(=O)N5CCOCC5)c34)C[C@@H]2N1C(=O)NCc1ccccc1 [compound 4] | 930 nM | 6.23 µM | – |
| C=CCN1CC(=O)N2[C@@H](Cc3ccc(O)cc3)C(=O)N(Cc3cccc4nnn(CC(=O)O)c34)C[C@@H]2N1C(=O)NCc1ccccc1 [compound 3] | – | > 50 µM | – |
| C=CCN1CC(=O)N2[C@@H](Cc3ccc(O)cc3)C(=O)N(Cc3ccc4nn(C)nc4c3)C[C@@H]2N1C(=O)NCc1ccccc1 [Compound A, 2-allyl-6-(4-hydroxy-benzyl)-8-(2-methyl-2H-benzotriazol-5-ylmethyl)-4,7-dioxo-hexahydro-pyrazino[2,1-c][1,2,4]triazine-1-carboxylic acid benzylamide] | – | – | inhibition of a CYP3A4 enzyme (in words) ([2]; FIG. 2): weak inhibition; IC50 ([2]; Table 6, FIG. 2, read-out: IC50 against CYP3A4 activity): 19.2 µM; GI50 [1, 6]: 262 nM; IC50 ([3]; SW480 cells, TopFlash, 24 hours treatment, FIG. 3, read-out: IC50 of Compound A for SW480 cells): 1 ± 0.254 µM |
| C=CCN1CC(=O)N2[C@@H](Cc3ccc(O)cc3)C(=O)N(Cc3cccc4c3nnn4CC(N)=O)C[C@@H]2N1C(=O)NCc1ccccc1 [Compound C] | – | – | GI50 [1, 6]: 560 nM |
| C=CCN1CC(=O)N2[C@@H](Cc3ccc(O)cc3)C(=O)N(Cc3cccc4nnn(CC(N)=O)c34)C[C@@H]2N1C(=O)NCc1ccccc1 [compound 13] | 3270 nM | – | – |
| C=CCN1CC(=O)N2[C@@H](Cc3ccc(O)cc3)C(=O)N(Cc3cccc4nnn(CC(=O)OCC)c34)C[C@@H]2N1C(=O)NCc1ccccc1 [compound 3] | 710 nM | – | – |
| C=CCN1CC(=O)N2[C@@H](Cc3ccc(O)cc3)C(=O)N(Cc3cccc4nnn(CC(=O)N5CCN(C)CC5)c34)C[C@@H]2N1C(=O)NCc1ccccc1 [compound 5] | 2970 nM | – | – |
| C=CCN1CC(=O)N2[C@@H](Cc3ccc(O)cc3)C(=O)N(Cc3cccc4nnn(CC(=O)N(C)C)c34)C[C@@H]2N1C(=O)NCc1ccccc1 [compound 7] | – | 41.1 µM | – |
